In patent US6245917A, “Crystalline sodium phenytoin monohydrate” (Warner-Lambert Company, priority 1999, dated 2001):

What was measured:
Type in all cases: physicochemical
[1] = Weight change under controlled humidity conditions, first study (SPM made by the toluene slurry)
Source text: Study of weight change under controlled humidity conditions, samples were placed in open vials, which were placed in closed controlled-humidity jars. Relative humidities were controlled using saturated aqueous salt solutions: 58% RH, NaBr; 75% RH, (NH4)2 SO4; 76%, sodium acetate; 84% RH, KBr. Water uptake/loss characteristics of SPM and SPA were compared. Samples were kept at ambient temperature under various relative humidities (RHs) and were periodically weighed. […] The fact that SPM loses significant mass under even high humidity conditions is inconsistent with the loss of only water.

[2] = DSC and TGA thermal analyses; settings: TGA, transitions at 364° C. and 409° C.
Experimental: Differential scanning calorimetry (DSC) experiments were performed on a Dupont DSC 2000 and thermogravimetric analyses (TGA) were performed on a Dupont TGA 2000. Nitrogen was used as the purge gas and heating rates were 10° C./minute. Standards were run prior to sample analyses; Sn for DSC and calcium oxalate for TGA.
Both SPM and SPA were analyzed by x-ray powder diffraction (XRPD), infrared (IR) spectroscopy, solid-state nuclear magnetic resonance (SSNMR) spectroscopy, differential scanning calorimetry (DSC) and thermogravimetric analysis (TGA). The XRPD patterns of SPM and SPA are quite different and distinguishable. While the IR and SSNMR spectra of SPM and SPA are different, the differences are subtle. SPM and SPA behave quite differently on both DSC and TGA thermal analyses. SPA undergoes endothermic transitions at 364° C. and 409° C. that are accompanied by a weight loss of 72%.

[3] = Repeated water uptake study with solvent-free SPM (dichloromethane preparation)
Source text: Study of weight change under controlled humidity conditions, samples were placed in open vials, which were placed in closed controlled-humidity jars. Relative humidities were controlled using saturated aqueous salt solutions: 58% RH, NaBr; 75% RH, (NH4)2 SO4; 76%, sodium acetate; 84% RH, KBr.
A possible cause of the observed weight loss is that some reaction solvent (toluene in this case) from the preparation of SPM remained on the solid and evaporated in the humidity jars. To test this theory, it was decided to prepare SPM, show it to be solvent-free, and repeat the water uptake studies. Dichloromethane was chosen as the organic solvent for the preparation rather than toluene because its lower boiling point should allow it to be removed from the solid more easily and completely. SPM was made by stirring a slurry of SPA and one equivalent of water in dichloromethane for 2 days, then isolation by filtration and air-drying of the solid SPM.
The remainder of the SPM sample was allowed to dry in an open jar under ambient conditions for about 1 week. It was then characterized by XRPD elemental analysis, and Karl Fischer (KF) analysis. The sample appears to be pure SPM containing very little, if any, residual solvent.
Both SPM and SPA increased in weight about 20% when equilibrium was reached (constant weight) at each humidity utilized. The samples were analyzed by XRPD after completion of the water uptake experiments. […] The nature of this form has not been determined.

O=C1NC(=O)C(c2ccccc2)(c2ccccc2)N1 [SPA, sodium phenytoin anhydrate, reference compound]
Percent change based on average of final two weights ([1]; 58% RH): +24% | Percent change based on average of final two weights ([1]; 75% RH): +25% | Percent change based on average of final two weights ([1]; 84% RH): +25% | weight gained on reaching constant weight ([1]; all humidities utilized, ambient temperature): 25% | weight loss accompanying the endothermic transitions [2]: 72% | Percent change based on average of final two weights ([3]; 58% RH): +19% | sample weight ([3]; 58% RH, day 0 (starting weight)): 1.5087 g | change in starting weight ([3]; 58% RH, day 1): +0.0263 g | sample weight ([3]; 58% RH, day 1): 1.5350 g | change in starting weight ([3]; 58% RH, day 2): +0.0510 g | sample weight ([3]; 58% RH, day 2): 1.5597 g | change in starting weight ([3]; 58% RH, day 3): +0.0793 g | sample weight ([3]; 58% RH, day 3): 1.5880 g | change in starting weight ([3]; 58% RH, day 4): +0.1011 g | sample weight ([3]; 58% RH, day 4): 1.6098 g | change in starting weight ([3]; 58% RH, day 5): +0.1111 g | sample weight ([3]; 58% RH, day 5): 1.6198 g | change in starting weight ([3]; 58% RH, day 6): +0.1208 g | sample weight ([3]; 58% RH, day 6): 1.6295 g | change in starting weight ([3]; 58% RH, day 7): +0.1333 g | sample weight ([3]; 58% RH, day 7): 1.6420 g | change in starting weight ([3]; 58% RH, day 8): 0.1487 g | change in starting weight ([3]; 58% RH, day 10): +0.1797 g | change in starting weight ([3]; 58% RH, day 12): +0.2166 g | sample weight ([3]; 58% RH, day 12): 1.7253 g | change in starting weight ([3]; 58% RH, day 13): +0.2250 g | sample weight ([3]; 58% RH, day 13): 1.7337 g | change in starting weight ([3]; 58% RH, day 14): +0.2338 g | sample weight ([3]; 58% RH, day 14): 1.7425 g | change in starting weight ([3]; 58% RH, day 15): +0.2445 g | sample weight ([3]; 58% RH, day 15): 1.7532 g | change in starting weight ([3]; 58% RH, day 16): +0.2531 g | sample weight ([3]; 58% RH, day 16): 1.7618 g | change in starting weight ([3]; 58% RH, day 17): +0.2593 g | sample weight ([3]; 58% RH, day 17): 1.7680 g | change in starting weight ([3]; 58% RH, day 21): +0.2773 g | sample weight ([3]; 58% RH, day 21): 1.7860 g | change in starting weight ([3]; 58% RH, day 23): +0.2818 g | sample weight ([3]; 58% RH, day 23): 1.7905 g | change in starting weight ([3]; 58% RH, day 26): +0.2818 g | Percent change based on average of final two weights ([3]; 75% RH): +21% | sample weight ([3]; 75% RH, day 0 (starting weight)): 1.5037 g | change in starting weight ([3]; 75% RH, day 1): +0.0581 g | sample weight ([3]; 75% RH, day 1): 1.5618 g | change in starting weight ([3]; 75% RH, day 2): +0.1166 g | sample weight ([3]; 75% RH, day 2): 1.6203 g | change in starting weight ([3]; 75% RH, day 3): +0.1625 g | sample weight ([3]; 75% RH, day 3): 1.6662 g | change in starting weight ([3]; 75% RH, day 4): +0.2103 g | sample weight ([3]; 75% RH, day 4): 1.7140 g | change in starting weight ([3]; 75% RH, day 5): +0.2501 g | sample weight ([3]; 75% RH, day 5): 1.7538 g | change in starting weight ([3]; 75% RH, day 6): +0.2825 g | sample weight ([3]; 75% RH, day 6): 1.7862 g | change in starting weight ([3]; 75% RH, day 7): +0.3054 g | sample weight ([3]; 75% RH, day 7): 1.8091 g | change in starting weight ([3]; 75% RH, day 8): +0.3152 g | change in starting weight ([3]; 75% RH, day 10): +0.3165 g | change in starting weight ([3]; 75% RH, day 12): +0.3197 g | sample weight ([3]; 75% RH, day 12): 1.8234 g | change in starting weight ([3]; 75% RH, day 13): +0.3171 g | sample weight ([3]; 75% RH, day 13): 1.8208 g | change in starting weight ([3]; 75% RH, day 14): +0.3152 g | sample weight ([3]; 75% RH, day 14): 1.8189 g | change in starting weight ([3]; 75% RH, day 15): +0.3146 g | sample weight ([3]; 75% RH, day 15): 1.8183 g | change in starting weight ([3]; 75% RH, day 16): +0.3139 g | sample weight ([3]; 75% RH, day 16): 1.8176 g | change in starting weight ([3]; 75% RH, day 17): +0.3117 g | sample weight ([3]; 75% RH, day 17): 1.8154 g | Percent change based on average of final two weights ([3]; 84% RH): +22% | sample weight ([3]; 84% RH, day 0 (starting weight)): 1.5023 g | change in starting weight ([3]; 84% RH, day 1): +0.0712 g | sample weight ([3]; 84% RH, day 1): 1.5735 g | change in starting weight ([3]; 84% RH, day 2): +0.1330 g | sample weight ([3]; 84% RH, day 2): 1.6353 g | change in starting weight ([3]; 84% RH, day 3): +0.1952 g | sample weight ([3]; 84% RH, day 3): 1.6975 g | change in starting weight ([3]; 84% RH, day 4): +0.2498 g | sample weight ([3]; 84% RH, day 4): 1.7521 g | change in starting weight ([3]; 84% RH, day 5): +0.2949 g | sample weight ([3]; 84% RH, day 5): 1.7972 g | change in starting weight ([3]; 84% RH, day 6): +0.3169 g | sample weight ([3]; 84% RH, day 6): 1.8192 g | change in starting weight ([3]; 84% RH, day 7): +0.3275 g | sample weight ([3]; 84% RH, day 7): 1.8298 g | change in starting weight ([3]; 84% RH, day 8): +0.3301 g | change in starting weight ([3]; 84% RH, day 12): +0.3322 g | sample weight ([3]; 84% RH, day 12): 1.8345 g | change in starting weight ([3]; 84% RH, day 13): +0.3288 g | sample weight ([3]; 84% RH, day 13): 1.8311 g | change in starting weight ([3]; 84% RH, day 14): +0.3260 g | sample weight ([3]; 84% RH, day 14): 1.8283 g | change in starting weight ([3]; 84% RH, day 15): +0.3255 g | sample weight ([3]; 84% RH, day 15): 1.8278 g | change in starting weight ([3]; 84% RH, day 16): +0.3249 g | sample weight ([3]; 84% RH, day 16): 1.8272 g | change in starting weight ([3]; 84% RH, day 17): +0.3225 g | sample weight ([3]; 84% RH, day 17): 1.8248 g
